Measurements published in patent publication US20230331731A1, “CRYSTAL FORM OF PYRROLO HETEROCYCLIC DERIVATIVE AND PREPARATION METHOD THEREFOR” (Jiangsu Hengrui Pharmaceuticals Co., Ltd., priority 2020, published 2023).
Each block holds one compound with its values, some of them ahead of it.

Assays:
[1] = Long-term/accelerated stability study; assay type: physicochemical; conditions: for physical and chemical stability (conclusion): long-term and accelerated stability conditions; for Purity, 1 month / physical and chemical stability (conclusion) / Crystal form: 1 month
Procedure: 1. The hydrobromide in crystal form α was left to stand under 25° C., 60% RH conditions and 40° C., 75% RH conditions to investigate its stability.
4. The fumarate in crystal form II was subjected to 6-month long-term (25° C., 60% RH) and accelerated (40° C., 75% RH) stability studies.

[2] = Influencing factor stability study; assay type: physicochemical; conditions: for physical and chemical stability (conclusion): high-temperature conditions (40° C. and 60° C.) and high-humidity conditions (75% and 92.5%)

Purity, 1 month ([1]; 25° C., 60%RH): 99.40% | Purity, 1 month ([1]; 40° C., 75%RH): 99.34% | Purity, Initial [1]: 99.46% | physical and chemical stability (conclusion) [1]: good physical and chemical stability | Color and appearance ([2]; 40° C., open, 7 days): Pale yellow solid | Crystal form ([2]; 40° C., open, 7 days): Did not change | Main peak purity ([2]; 40° C., open, 7 days): 99.46% | Color and appearance ([2]; 40° C., open, 14 days): Pale yellow solid | Crystal form ([2]; 40° C., open, 14 days): Did not change | Main peak purity ([2]; 40° C., open, 14 days): 99.47% | Color and appearance ([2]; 40° C., open, 30 days): Pale yellow solid | Crystal form ([2]; 40° C., open, 30 days): Did not change | Main peak purity ([2]; 40° C., open, 30 days): 99.26% | Color and appearance ([2]; 60° C., open, 7 days): Pale yellow solid | Crystal form ([2]; 60° C., open, 7 days): Did not change | Main peak purity ([2]; 60° C., open, 7 days): 99.45% | Color and appearance ([2]; 60° C., open, 14 days): Pale yellow solid | Crystal form ([2]; 60° C., open, 14 days): Did not change | Main peak purity ([2]; 60° C., open, 14 days): 99.46% | Color and appearance ([2]; 60° C., open, 30 days): Pale yellow solid | Crystal form ([2]; 60° C., open, 30 days): Did not change | Main peak purity ([2]; 60° C., open, 30 days): 99.23% | Color and appearance ([2]; 75% RH, open, 7 days): Pale yellow solid | Crystal form ([2]; 75% RH, open, 7 days): Did not change | Main peak purity ([2]; 75% RH, open, 7 days): 99.52% | Color and appearance ([2]; 75% RH, open, 14 days): Pale yellow solid | Crystal form ([2]; 75% RH, open, 14 days): Did not change | Main peak purity ([2]; 75% RH, open, 14 days): 99.43% | Color and appearance ([2]; 75% RH, open, 30 days): Pale yellow solid | Crystal form ([2]; 75% RH, open, 30 days): Did not change | Main peak purity ([2]; 75% RH, open, 30 days): 99.36% | Color and appearance ([2]; 92.5% RH, open, 7 days): Pale yellow solid | Crystal form ([2]; 92.5% RH, open, 7 days): Did not change | Main peak purity ([2]; 92.5% RH, open, 7 days): 99.47% | Color and appearance ([2]; 92.5% RH, open, 14 days): Pale yellow solid | Crystal form ([2]; 92.5% RH, open, 14 days): Did not change | Main peak purity ([2]; 92.5% RH, open, 14 days): 99.45% | Color and appearance ([2]; 92.5% RH, open, 30 days): Pale yellow solid | Crystal form ([2]; 92.5% RH, open, 30 days): Did not change | Main peak purity ([2]; 92.5% RH, open, 30 days): 99.40% | Color and appearance ([2]; 4500 Lux, open, 7 days): Pale yellow solid | Crystal form ([2]; 4500 Lux, open, 7 days): Did not change | Main peak purity ([2]; 4500 Lux, open, 7 days): 99.43% | Color and appearance ([2]; 4500 Lux, open, 14 days): Pale yellow solid | Crystal form ([2]; 4500 Lux, open, 14 days): Did not change | Main peak purity ([2]; 4500 Lux, open, 14 days): 99.29% | Color and appearance ([2]; 4500 Lux, open, 30 days): Pale yellow solid | Crystal form ([2]; 4500 Lux, open, 30 days): Did not change | Main peak purity ([2]; 4500 Lux, open, 30 days): 99.19% | Color and appearance ([2]; Initial, 0 days): Pale yellow solid | Crystal form ([2]; Initial, 0 days): Crystal form IV | Main peak purity ([2]; Initial, 0 days): 99.47%
Structure (SMILES): Cn1nccc1Nc1nccc(-c2cc3n(c2)C(=O)N([C@H](CO)c2cccc(Cl)c2)C3)n1.Cn1nccc1Nc1nccc(-c2cc3n(c2)C(=O)N([C@H](CO)c2cccc(Cl)c2)C3)n1.O=C(O)/C=C/C(=O)O [Fumarate in crystal form IV]
physical and chemical stability (conclusion) ([2]; 30 days): relatively good physical and chemical stability

Crystal form ([1]; 25° C., 60%RH): α | Purity, 1 month ([1]; 25° C., 60%RH): 99.33% | Crystal form ([1]; 40° C., 75%RH): α | Purity, 1 month ([1]; 40° C., 75%RH): 99.24% | Purity, Initial [1]: 99.43% | physical and chemical stability (conclusion) [1]: good physical and chemical stability | Color and appearance ([2]; 40° C., open, 7 days): Off-white solid | Crystal form ([2]; 40° C., open, 7 days): Did not change | Main peak purity ([2]; 40° C., open, 7 days): 99.42% | Color and appearance ([2]; 40° C., open, 14 days): Off-white solid | Crystal form ([2]; 40° C., open, 14 days): Did not change | Main peak purity ([2]; 40° C., open, 14 days): 99.32% | Color and appearance ([2]; 40° C., open, 30 days): Off-white solid | Crystal form ([2]; 40° C., open, 30 days): Did not change | Main peak purity ([2]; 40° C., open, 30 days): 99.28% | Color and appearance ([2]; 60° C., open, 7 days): Off-white solid | Crystal form ([2]; 60° C., open, 7 days): Did not change | Main peak purity ([2]; 60° C., open, 7 days): 99.38% | Color and appearance ([2]; 60° C., open, 14 days): Off-white solid | Crystal form ([2]; 60° C., open, 14 days): Did not change | Main peak purity ([2]; 60° C., open, 14 days): 98.99% | Color and appearance ([2]; 60° C., open, 30 days): Off-white solid | Crystal form ([2]; 60° C., open, 30 days): Did not change | Main peak purity ([2]; 60° C., open, 30 days): 99.02% | Color and appearance ([2]; 75% RH, open, 7 days): Off-white solid | Crystal form ([2]; 75% RH, open, 7 days): Did not change | Main peak purity ([2]; 75% RH, open, 7 days): 99.41% | Color and appearance ([2]; 75% RH, open, 14 days): Off-white solid | Crystal form ([2]; 75% RH, open, 14 days): Did not change | Main peak purity ([2]; 75% RH, open, 14 days): 99.30% | Color and appearance ([2]; 75% RH, open, 30 days): Off-white solid | Crystal form ([2]; 75% RH, open, 30 days): Did not change | Main peak purity ([2]; 75% RH, open, 30 days): 99.31% | Color and appearance ([2]; 92.5% RH, open, 7 days): Off-white solid | Crystal form ([2]; 92.5% RH, open, 7 days): Did not change | Main peak purity ([2]; 92.5% RH, open, 7 days): 99.39% | Color and appearance ([2]; 92.5% RH, open, 14 days): Off-white solid | Crystal form ([2]; 92.5% RH, open, 14 days): Did not change | Main peak purity ([2]; 92.5% RH, open, 14 days): 99.42% | Color and appearance ([2]; 92.5% RH, open, 30 days): Off-white solid | Crystal form ([2]; 92.5% RH, open, 30 days): Did not change | Main peak purity ([2]; 92.5% RH, open, 30 days): 99.28% | Color and appearance ([2]; 4500 Lux, open, 7 days): Off-white solid | Crystal form ([2]; 4500 Lux, open, 7 days): Did not change | Main peak purity ([2]; 4500 Lux, open, 7 days): 99.09% | Color and appearance ([2]; 4500 Lux, open, 14 days): Off-white solid | Crystal form ([2]; 4500 Lux, open, 14 days): Did not change | Main peak purity ([2]; 4500 Lux, open, 14 days): 98.94% | Color and appearance ([2]; 4500 Lux, open, 30 days): Off-white solid | Crystal form ([2]; 4500 Lux, open, 30 days): Did not change | Main peak purity ([2]; 4500 Lux, open, 30 days): 98.50%
Structure (SMILES): Br.Cn1nccc1Nc1nccc(-c2cc3n(c2)C(=O)N([C@H](CO)c2cccc(Cl)c2)C3)n1 [Hydrobromide in crystal form α]
physical and chemical stability (conclusion) ([2]; 30 days): relatively good physical and chemical stability

Crystal form ([1]; 25° C., 60%RH): β | Purity, 1 month ([1]; 25° C., 60%RH): 98.99% | Crystal form ([1]; 40° C., 75%RH): β | Purity, 1 month ([1]; 40° C., 75%RH): 99.00% | Purity, Initial [1]: 99.17% | physical and chemical stability (conclusion) [1]: good physical and chemical stability | Color and appearance ([2]; 40° C., open, 7 days): Off-white solid | Crystal form ([2]; 40° C., open, 7 days): Did not change | Main peak purity ([2]; 40° C., open, 7 days): 99.13% | Color and appearance ([2]; 40° C., open, 14 days): Off-white solid | Crystal form ([2]; 40° C., open, 14 days): Did not change | Main peak purity ([2]; 40° C., open, 14 days): 99.07% | Color and appearance ([2]; 40° C., open, 30 days): Off-white solid | Crystal form ([2]; 40° C., open, 30 days): Did not change | Main peak purity ([2]; 40° C., open, 30 days): 98.96% | Color and appearance ([2]; 60° C., open, 7 days): Off-white solid | Crystal form ([2]; 60° C., open, 7 days): Did not change | Main peak purity ([2]; 60° C., open, 7 days): 98.82% | Color and appearance ([2]; 60° C., open, 14 days): Off-white solid | Crystal form ([2]; 60° C., open, 14 days): Did not change | Main peak purity ([2]; 60° C., open, 14 days): 98.82% | Color and appearance ([2]; 60° C., open, 30 days): Off-white solid | Crystal form ([2]; 60° C., open, 30 days): Did not change | Main peak purity ([2]; 60° C., open, 30 days): 98.88% | Color and appearance ([2]; 75% RH, open, 7 days): Off-white solid | Crystal form ([2]; 75% RH, open, 7 days): Did not change | Main peak purity ([2]; 75% RH, open, 7 days): 99.13% | Color and appearance ([2]; 75% RH, open, 14 days): Off-white solid | Crystal form ([2]; 75% RH, open, 14 days): Did not change | Main peak purity ([2]; 75% RH, open, 14 days): 99.11% | Color and appearance ([2]; 75% RH, open, 30 days): Off-white solid | Crystal form ([2]; 75% RH, open, 30 days): Did not change | Main peak purity ([2]; 75% RH, open, 30 days): 99.11% | Color and appearance ([2]; 92.5% RH, open, 7 days): Off-white solid | Crystal form ([2]; 92.5% RH, open, 7 days): Did not change | Main peak purity ([2]; 92.5% RH, open, 7 days): 99.09% | Color and appearance ([2]; 92.5% RH, open, 14 days): Off-white solid | Crystal form ([2]; 92.5% RH, open, 14 days): Did not change | Main peak purity ([2]; 92.5% RH, open, 14 days): 99.15% | Color and appearance ([2]; 92.5% RH, open, 30 days): Off-white solid | Crystal form ([2]; 92.5% RH, open, 30 days): Did not change | Main peak purity ([2]; 92.5% RH, open, 30 days): 98.93% | Color and appearance ([2]; 4500 Lux, open, 7 days): Off-white solid | Crystal form ([2]; 4500 Lux, open, 7 days): Did not change | Main peak purity ([2]; 4500 Lux, open, 7 days): 98.99% | Color and appearance ([2]; 4500 Lux, open, 14 days): Off-white solid | Crystal form ([2]; 4500 Lux, open, 14 days): Did not change | Main peak purity ([2]; 4500 Lux, open, 14 days): 98.54% | Color and appearance ([2]; 4500 Lux, open, 30 days): Off-white solid | Crystal form ([2]; 4500 Lux, open, 30 days): Did not change | Main peak purity ([2]; 4500 Lux, open, 30 days): 98.28% | Color and appearance ([2]; Initial, 0 days): Off-white solid | Crystal form ([2]; Initial, 0 days): Crystal form β | Main peak purity ([2]; Initial, 0 days): 99.12%
Structure (SMILES): Br.Br.Cn1nccc1Nc1nccc(-c2cc3n(c2)C(=O)N([C@H](CO)c2cccc(Cl)c2)C3)n1 [Hydrobromide in crystal form β]
physical and chemical stability (conclusion) ([2]; 30 days): relatively good physical and chemical stability
